# Source: EP4806890A1, “CRYSTALLINE COMPOUND OR BASIC SALT THEREOF, PREPARATION METHOD THEREFOR, AND USE THEREOF” (Abbisko Therapeutics Co., Ltd., priority 2023, dated 2025)
# Assays:
# [1] = Later pharmaceutical research on the trifluoroacetate freeze-dried amorphous compound of WO2019149183A1 (solid-state properties); assay type: physicochemical
# [2] = target: PD-1/PD-L1 (Homo sapiens, UniProt Q9NZQ7); conditions: statement of the background, WO2019149183A1; cited from earlier work
# [3] = tested on: T cells; conditions: statement of the background, WO2019149183A1; cited from earlier work
# [4] = Solubility determination (equilibrium solubility, 24 hrs stirring at room temperature, HPLC); assay type: physicochemical; conditions: for Equilibrium solubility: target concentration 2000 µg/mL, 24 hrs; for pH24 hrs: pH of the filtrate after 24 hrs
# Protocol: (§1) The stability and solubility of the crystalline free form of the compound of formula (I) or the basic salt thereof of the present application were determined by HPLC.
# The desired amount of the compound was weighed into a glass vial, and the desired amount of a vehicle was added. A stir bar was added to the vial, and the mixture was stirred at room temperature for 24 hrs. After 24 hrs, the appearance of the sample was observed. An appropriate amount of the sample was filtered through a PVDF 0.45 µm filter membrane, and the filtrate was collected. The pH value of the filtrate was determined, and the sample was diluted with MeOH. The diluted sample was injected into an HPLC system to determine the concentration.
# [5] = Stability determination (thermal stability and photostability, HPLC purity, appearance, XRPD); assay type: physicochemical; conditions: for XRPD: crystalline form found
# Protocol: as §1
# An appropriate amount of the sample was placed in a vial and left to stand at 50 °C, 80 °C or 50 °C & 75% RH (open) for 7 days to evaluate thermal stability. An appropriate amount of the sample was placed in a transparent vial, […] evaluation under conditions of overall near-ultraviolet energy of 1.2 * 10^6 Lux·hr and no less than 200 W·hr/m2.
# [6] = Hygroscopic behavior test by dynamic vapor sorption (DVS); assay type: physicochemical; conditions: for hygroscopicity (in words): DVS, 25 °C
# Text: The experimental method of characterizing the crystalline free form of the compound of formula (I) or the basic salt thereof using dynamic vapor sorption (DVS) is as follows: a small amount of the crystalline sample was placed in a precision sample tray that was compatible with the instrument; after the sample was loaded, the sample tray was placed into the instrument for analysis. In this patent, the instruments used for dynamic vapor sorption were all the DVS Intrinsic plus model, and the following experimental parameters were set: nitrogen was used as the carrier gas, a constant temperature of 25 °C was set, the rate of mass percentage change over a unit of time (dm/dt) = 0.002%/min was used as a criterion for determining if equilibrium is reached, and the program humidity change cycle was set to 50-95-0-95-50% RH; within the range of 0-90% RH, a change of 10% RH was taken as a step, and within the range of 90% RH-95% RH, a change of 5% RH was taken as a step.
# In the present invention, the hygroscopic weight increases (hygroscopic weight increase/weight before hygroscopy * 100%) of various crystalline forms under various relative humidity conditions were determined using the dynamic vapor sorption method, and the hygroscopicity of different crystalline compounds was evaluated.
# [7] = pH 4.7, 50 mM acetic acid buffer
# [8] = pH 6.8, 50 mM phosphoric acid buffer
# [9] = Aluminum foil light exposure control, 9.2 days
# [10] = Transparent light exposure, 9.2 days
# Chain of PD-1/PD-L1 (Q9NZQ7 19-238 limits assumed): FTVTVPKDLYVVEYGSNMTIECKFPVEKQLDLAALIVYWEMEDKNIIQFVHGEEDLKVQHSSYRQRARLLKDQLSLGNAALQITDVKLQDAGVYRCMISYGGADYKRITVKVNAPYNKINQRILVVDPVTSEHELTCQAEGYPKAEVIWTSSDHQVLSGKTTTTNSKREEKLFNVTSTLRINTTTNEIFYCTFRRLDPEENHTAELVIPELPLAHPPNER
smiles,measurement,setting,value
"Cc1c(NC(=O)c2cc(C3CC3)c(CN3CCCC[C@H]3C(=O)O)cn2)cccc1-c1cccc(NC(=O)c2cc(C3CC3)c(CN3CCCC[C@H]3C(=O)O)cn2)c1C [compound of formula (I), (2S,2'S)-1,1'-(((((2,2'-dimethyl-[1,1'-biphenyl]-3,3'-diyl)bis(azanediyl))bis(carbonyl))bis(4-cyclopropylpyridine-6,3-diyl))bis(methylene))bis(piperidine-2-carboxylic acid)]",hygroscopicity (in words),[1],very hygroscopic
same,solubility (in words),[1],poor solubility
same,inhibitory effect on the protein interaction of PD-1/PD-L1,[2],strong inhibitory effect
same,activation of T cells at the cellular level,[3],enhance or restore the activation of T cells
"Cc1c(NC(=O)c2cc(C3CC3)c(CN3CCCC[C@H]3C(=O)O)cn2)cccc1-c1cccc(NC(=O)c2cc(C3CC3)c(CN3CCCC[C@H]3C(=O)O)cn2)c1C [free-form crystalline form F, (2S,2'S)-1,1'-(((((2,2'-dimethyl-[1,1'-biphenyl]-3,3'-diyl)bis(azanediyl))bis(carbonyl))bis(4-cyclopropylpyridine-6,3-diyl))bis(methylene))bis(piperidine-2-carboxylic acid)]",Equilibrium solubility,[4]; FaSSGF,0.11715 mg/mL
same,Equilibrium solubility,[4]; FaSSIF,0.30656 mg/mL
same,Equilibrium solubility,[4]; FeSSIF,1.72316 mg/mL
same,Equilibrium solubility,"[4]; Water, room temperature",0.06947 mg/mL
same,Equilibrium solubility,"[4]; pH 1.2, HCl 100 mM",0.24449 mg/mL
same,Equilibrium solubility,[4]; [7],0.06733 mg/mL
same,Equilibrium solubility,[4]; [8],0.06101 mg/mL
same,pH24 hrs,[4]; FaSSGF,1.58
same,pH24 hrs,[4]; FaSSIF,6.42
same,pH24 hrs,[4]; FeSSIF,4.99
same,pH24 hrs,[4]; Water,5.52
same,pH24 hrs,"[4]; pH 1.2, HCl 100 mM",1.15
same,pH24 hrs,[4]; [7],4.68
same,pH24 hrs,[4]; [8],6.93
same,solubility (in words),"[4]; various pH conditions, buffers and biological medium solutions",extremely significantly improved solubility
same,physical and chemical stability (in words),"[5]; 50 °C, 50 °C/75% RH (open), 80 °C for 7 days and photostress for 10 days",extremely high physical and chemical stability
same,Appearance,"[5]; 50 °C, 11 days",White powder
same,Purity (%),"[5]; 50 °C, 11 days",99.36%
same,Appearance,"[5]; 50 °C/75%RH, 11 days",White powder
same,Purity (%),"[5]; 50 °C/75%RH, 11 days",99.36%
same,Appearance,"[5]; 80 °C, 11 days",White powder
same,Purity (%),"[5]; 80 °C, 11 days",99.22%
same,Appearance,[5]; [9],White powder
same,Purity (%),[5]; [9],99.39%
same,Appearance,"[5]; Initial, 0 days",White powder
same,Purity (%),"[5]; Initial, 0 days",99.44%
same,Appearance,[5]; [10],White powder
same,Purity (%),[5]; [10],99.43%
same,XRPD,"[5]; 50 °C, 11 days",Free-form crystalline form F
same,XRPD,"[5]; 50 °C/75%RH, 11 days",Free-form crystalline form F
same,XRPD,"[5]; 80 °C, 11 days",Free-form crystalline form F
same,XRPD,[5]; [9],Free-form crystalline form F
same,XRPD,"[5]; Initial, 0 days",Free-form crystalline form F
same,XRPD,[5]; [10],Free-form crystalline form F
same,hygroscopicity (in words),[6],moderate hygroscopicity
same,hygroscopicity (in words),[6]; listed as crystalline form F,moderately hygroscopic
same,Hygroscopic weight increase (%),[6]; Relative humidity 0.0 % at 25 °C,0.00%
same,Hygroscopic weight increase (%),[6]; Relative humidity 10.0 % at 25 °C,0.18%
same,Hygroscopic weight increase (%),[6]; Relative humidity 20.0 % at 25 °C,0.38%
same,Hygroscopic weight increase (%),[6]; Relative humidity 30.0 % at 25 °C,0.60%
same,Hygroscopic weight increase (%),[6]; Relative humidity 40.0 % at 25 °C,0.84%
same,Hygroscopic weight increase (%),[6]; Relative humidity 50.0 % at 25 °C,1.14%
same,Hygroscopic weight increase (%),[6]; Relative humidity 60.0 % at 25 °C,1.54%
same,Hygroscopic weight increase (%),[6]; Relative humidity 70.0 % at 25 °C,2.04%
same,Hygroscopic weight increase (%),[6]; Relative humidity 80.0 % at 25 °C,2.55%
same,Hygroscopic weight increase (%),[6]; Relative humidity 90.0 % at 25 °C,3.28%
same,crystalline form changes after DVS testing,[6]; after DVS testing,no crystalline form changes
